Data from patent US20210002649A1, “COMPOSITIONS AND METHODS FOR TREATING CANCER” (Beth Israel Deaconess Medical Center, Inc., priority 2018, published 2021).
Where a SMILES comes first, the peptide text is derived from it. The star is where a group is joined. Cbz = O=C(OCc1ccccc1)*

How the values were obtained:
[1] = biological target: T1, WWP1 (Mus musculus, UniProt Q8BZZ3); experiment: Active CD8 T cell tumor infiltration, syngenic mice model; type: in vivo
T1 construct: from tissue

[2] = system: JAK-STAT, NF-kB, and TNFα pathway; experiment: RNA-seq analysis of immune suppressive pathways in Hi-Myc mice; type: in vivo; details: I3C treated Hi-Myc mice, versus vehicle (FIGS. 17-20)
[3] = system: PD-L1 protein levels in WWP1 knock-out cells; experiment: PD-L1 protein levels in WWP1 knock-out cells (gel image); type: cell-based; details: MG132 treatment (FIG. 12)

T1 sequence (Q8BZZ3 whole entry): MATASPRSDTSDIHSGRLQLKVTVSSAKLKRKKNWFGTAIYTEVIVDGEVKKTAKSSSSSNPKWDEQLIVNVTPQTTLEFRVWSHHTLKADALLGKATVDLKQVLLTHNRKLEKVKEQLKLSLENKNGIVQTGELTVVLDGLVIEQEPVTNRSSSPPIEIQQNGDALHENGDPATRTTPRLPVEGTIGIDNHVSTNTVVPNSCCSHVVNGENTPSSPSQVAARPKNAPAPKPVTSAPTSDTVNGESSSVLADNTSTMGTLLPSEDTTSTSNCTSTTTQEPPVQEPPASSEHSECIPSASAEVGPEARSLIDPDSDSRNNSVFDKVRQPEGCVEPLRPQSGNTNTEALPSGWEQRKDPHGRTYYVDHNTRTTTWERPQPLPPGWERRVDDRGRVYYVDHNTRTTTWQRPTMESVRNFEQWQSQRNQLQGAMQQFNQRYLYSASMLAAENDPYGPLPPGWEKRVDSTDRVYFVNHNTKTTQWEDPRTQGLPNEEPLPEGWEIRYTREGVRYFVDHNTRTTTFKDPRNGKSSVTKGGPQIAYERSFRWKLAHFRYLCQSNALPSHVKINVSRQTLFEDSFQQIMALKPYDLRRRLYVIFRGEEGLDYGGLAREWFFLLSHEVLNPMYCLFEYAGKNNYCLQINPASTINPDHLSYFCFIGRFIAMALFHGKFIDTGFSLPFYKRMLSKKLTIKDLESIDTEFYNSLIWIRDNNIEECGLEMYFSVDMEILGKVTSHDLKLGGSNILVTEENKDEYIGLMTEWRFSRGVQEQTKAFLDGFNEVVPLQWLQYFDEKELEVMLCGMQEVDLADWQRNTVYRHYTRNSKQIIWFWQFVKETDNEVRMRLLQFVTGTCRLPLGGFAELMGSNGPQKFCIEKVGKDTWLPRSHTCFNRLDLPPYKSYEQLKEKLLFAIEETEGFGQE

| tumor size ([1]; tumors, after WWP1 inhibition by I3C) | SMILES | active CD8 T cell tumor infiltration ([1]; syngenic mice (FIG. 16)) | immune suppressive pathways (RNA-seq) [2] | PD-L1 protein levels [3] |
| --- | --- | --- | --- | --- |
| reducing tumor size | OCc1c[nH]c2ccccc12 [I3C, indole-3-carbinol] | triggers active CD8 T cell tumor infiltration | down-regulation of multiple immune suppressive pathway (JAK-STAT, NF-kB, and TNFα pathway) | – |
| – | CC(C)C[C@@H](C=O)NC(=O)[C@H](CC(C)C)NC(=O)[C@H](CC(C)C)NC(=O)OCc1ccccc1 [MG132] (Cbz-Leu-Leu-Leu-aldehyde) | – | – | restored PD-L1 protein levels |
